{"source": "patent US8445246B2", "about": "“Flavin-binding glucose dehydrogenases” (Kikkoman Corporation, priority 2009, dated 2013)", "key": {"[1]": {"tested_on": "flavin-binding GDH of the invention", "assay": "Inhibiting effect of 1,10-phenanthroline", "type": "biochemical", "excerpt": "(§1) The inhibiting effect of […] on the activity of the flavin-binding GDH of the invention was examined in the following manner."}, "[2]": {"tested_on": "MpGDH", "assay": "Inhibiting effect of 1,10-phenanthroline on MpGDH", "type": "biochemical, Mucor prainii NISL0103", "excerpt": "as §1"}, "[3]": {"tested_on": "McGDH", "assay": "Inhibiting effect of 1,10-phenanthroline on McGDH", "type": "biochemical, Mucor circinelloides f. circinelloides NISL0117", "excerpt": "as §1"}, "[4]": {"tested_on": "MjGDH", "assay": "Inhibiting effect of 1,10-phenanthroline on MjGDH", "type": "biochemical, Mucor javanicus NISL0111", "excerpt": "as §1"}}}
{"smiles": "c1cnc2c(c1)ccc1cccnc12", "note": "[1,10-phenanthroline]", "values": [{"measurement": "inhibiting effect", "setting": "[1]; 1 mM 1,10-phenanthroline", "value": "2-4%"}, {"measurement": "inhibition rate", "setting": "[1]; 5 mM 1,10-phenanthroline", "value": "about 10%"}, {"measurement": "GDH inhibition rate (%)", "setting": "[2]; 1,10-phenanthroline 1 mM", "value": 3.72, "unit": "%"}, {"measurement": "GDH inhibition rate (%)", "setting": "[2]; 1,10-phenanthroline 5 mM", "value": 10.1, "unit": "%"}, {"measurement": "GDH inhibition rate (%)", "setting": "[2]; 1,10-phenanthroline 10 mM", "value": 23.9, "unit": "%"}, {"measurement": "GDH inhibition rate (%)", "setting": "[2]; 1,10-phenanthroline 25 mM", "value": 44.1, "unit": "%"}, {"measurement": "GDH inhibition rate (%)", "setting": "[2]; 1,10-phenanthroline 50 mM", "value": 68.6, "unit": "%"}, {"measurement": "GDH inhibition rate (%)", "setting": "[3]; 1,10-phenanthroline 1 mM", "value": 1.95, "unit": "%"}, {"measurement": "GDH inhibition rate (%)", "setting": "[3]; 1,10-phenanthroline 5 mM", "value": 8.23, "unit": "%"}, {"measurement": "GDH inhibition rate (%)", "setting": "[3]; 1,10-phenanthroline 10 mM", "value": 12.8, "unit": "%"}, {"measurement": "GDH inhibition rate (%)", "setting": "[3]; 1,10-phenanthroline 25 mM", "value": 36.2, "unit": "%"}, {"measurement": "GDH inhibition rate (%)", "setting": "[3]; 1,10-phenanthroline 50 mM", "value": 68.5, "unit": "%"}, {"measurement": "GDH inhibition rate (%)", "setting": "[4]; 1,10-phenanthroline 1 mM", "value": 3.27, "unit": "%"}, {"measurement": "GDH inhibition rate (%)", "setting": "[4]; 1,10-phenanthroline 5 mM", "value": 13.1, "unit": "%"}, {"measurement": "GDH inhibition rate (%)", "setting": "[4]; 1,10-phenanthroline 10 mM", "value": 23.5, "unit": "%"}, {"measurement": "GDH inhibition rate (%)", "setting": "[4]; 1,10-phenanthroline 25 mM", "value": 64.7, "unit": "%"}, {"measurement": "GDH inhibition rate (%)", "setting": "[4]; 1,10-phenanthroline 50 mM", "value": 88.9, "unit": "%"}]}
